From ChEMBL document CHEMBL1201862, “PubChem BioAssay data set” (2004) come the findings set out here.

Experiment in all cases: NCI tumour cell line growth inhibition, 48 h
Assay [1] has as its system CCRF-CEM.
Assay [2] relates to COLO 205.
For assay [3], the system named is DU-145.
Assay [4] concerns HCT-15.
Assay [5] has as its system MCF7.
The test system of assay [6] is NCI-H226.
For assay [7], the system named is NCI-H23.
The test system of assay [8] is NCI-H460.
Assay [9] concerns NCI-H522.
In assay [10] the test system is PC-3.
Assay [11] has as its system SK-MEL-2.
Assay [12] has as its system SK-MEL-5.
In assay [13] the test system is SN12C.
Assay [14] concerns SNB-19.
For assay [15], the system named is SR.
Assay [16] relates to TK-10.
The subject of assay [17] is U-251.
In assay [18] the test system is UACC-257.
Assay [19] relates to IGROV-1.
The test system of assay [20] is LOX IMVI.

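Assay format: 96-well plates, 48-hour exposure. At the GI50, growth is halved.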 Active and inactive are the calls of the source. Cut-off read from the data, not from the text of the source: active = GI50 up to about 1.1 µM and inactive = higher.

Turning to `CCOC(=O)C(NC(=O)c1ccco1)(Nc1nc2ccc(OCC)cc2s1)C(F)(F)F` (stereo unspecified), the GI50 was 23.8 µM (inactive) in assay [1]; 18.5 µM (inactive) in assay [2]; 55.3 µM (inactive) in assay [3]; 22.9 µM in assay [4]; 25.4 µM (inactive) in assay [5]; 35.1 µM (inactive) in [6]. The GI50 in assay [7] was 27.3 µM (inactive); in assay [8] it was 28.1 µM (inactive); in assay [9], 21.2 µM (inactive); in assay [10], 25.3 µM (inactive); in assay [11] it was 32.7 µM (inactive); in [12], 19.4 µM (inactive). The GI50 was 37.9 µM (inactive) in assay [13]; 51.4 µM (inactive) in assay [14]; 19.3 µM (inactive) in [15]; 50.1 µM (inactive) in assay [16]; 35.2 µM (inactive) in assay [17]; 28.4 µM (inactive) in assay [18].
In the case of `CN(C)CCNc1nc2ccccc2c2c1C(=O)c1ccccc1-2`, the GI50 in [1] is 0.0923 µM (active); in assay [2], 0.303 µM (active); in assay [3], 0.149 µM (active); in assay [4], 0.15 µM; in assay [19], 0.0942 µM (active); in assay [20] it was 0.147 µM (active). Moreover, the GI50 was 0.0508 µM (active) in [5]; 0.205 µM (active) in assay [6]; 0.316 µM (active) in [7]; < 0.0194 µM (active) in assay [8]; 0.211 µM (active) in [9]; 0.27 µM (active) in [10]. Moreover, the GI50 in [11] is 0.368 µM (active); in assay [12], 0.301 µM (active); in assay [13], 0.0565 µM (active); in assay [14] it was 0.47 µM (active); in [16] it was 0.513 µM (active); in [17] it was 0.219 µM (active). Further, in [18], the GI50 was 0.538 µM (active).
As for `CC(=O)c1c(-c2ccccc2)c(-c2ccc(OCCN(C)C)cc2)n2ccccc12`, the GI50 in assay [1] is 21 µM (inactive); in [2], 14 µM (inactive); in assay [3], 16.8 µM (inactive); in assay [4] it was 10.7 µM; in assay [19] it was 16.6 µM (inactive); in [20], 15.7 µM (inactive). Besides, the GI50 in assay [5] was 18 µM (inactive); in [6], 15.2 µM (inactive); in assay [7] it was 18.7 µM (inactive); in assay [8], 13.2 µM (inactive); in [9] it was 14.1 µM (inactive); in assay [10], 16.2 µM (inactive). Also, the GI50 in assay [11] is 19.1 µM (inactive); in assay [12], 10.3 µM (inactive); in [13], 16 µM (inactive); in assay [14], 19.3 µM (inactive); in [16], 17 µM (inactive); in assay [17], 17 µM (inactive). In [18], the GI50 is 15.5 µM (inactive).
With `S=C(N1CCN(c2cccc(Cl)c2)CC1)N1CCN(c2cccc(Cl)c2)CC1`, the GI50 in [1] is 5.71 µM (inactive); in [2], 22 µM (inactive); in assay [3] it was 30.3 µM (inactive); in assay [4], 57.3 µM; in [19] it was 42.6 µM (inactive); in assay [5] it was 37.1 µM (inactive). Also, the GI50 in assay [6] was 22 µM (inactive); in assay [7], > 100 µM (inactive); in assay [9], 26.9 µM (inactive); in [10] it was 32.7 µM (inactive); in [11], > 100 µM (inactive); in [12] it was 34.2 µM (inactive). For the same compound, the GI50 was 39.7 µM (inactive) in [14]; 13.4 µM (inactive) in [15]; 43.4 µM (inactive) in assay [16]; 87.3 µM (inactive) in assay [17]; 77.3 µM (inactive) in [18].
`C/C=C\C(CC(=O)NCC(=O)c1c[nH]c2ccccc12)CC(=O)OC` (stereo unspecified): the GI50 in assay [1] was 75.2 µM (inactive); in assay [2], > 100 µM (inactive); in assay [3], > 100 µM (inactive); in assay [4] it was > 100 µM; in [19], > 100 µM (inactive); in [5], > 100 µM (inactive). Moreover, the GI50 in [7], in assay [8], in assay [9], in assay [10], in assay [11] and in assay [12] was > 100 µM (inactive) in each case. Also, the GI50 in assay [14], in [15], in assay [16], in [17] and in [18] was > 100 µM (inactive) throughout.
Regarding `COc1ccccc1C(=O)c1c(N2CCCCC2)c(=O)c1=O`, the GI50 in assay [1] was > 100 µM (inactive); in assay [2] it was > 100 µM (inactive); in [3], > 100 µM (inactive); in assay [4] it was > 100 µM; in assay [19], > 100 µM (inactive); in assay [20], > 100 µM (inactive). The GI50 in assay [5] is > 100 µM (inactive); in assay [6] it was > 100 µM (inactive); in assay [7] it was > 100 µM (inactive); in [8], > 100 µM (inactive); in assay [9], 59.3 µM (inactive); in assay [10] it was > 100 µM (inactive). In addition, the GI50 in assay [11], in assay [12], in assay [13], in assay [14], in [16] and in assay [17] was > 100 µM (inactive) throughout. In assay [18], the GI50 was > 100 µM (inactive).
In the case of `CCCCN1C(=O)N(c2ccc(OCC)cc2)C2N(CCCC)C1C(C)(C)C2(C)C` (stereo unspecified), the GI50 was 16.3 µM (inactive) in assay [1]; 22.5 µM (inactive) in [2]; 30.1 µM (inactive) in assay [3]; 26.6 µM in assay [4]; 33.6 µM (inactive) in [19]; 7.71 µM (inactive) in assay [20]. Besides, the GI50 was 15.3 µM (inactive) in assay [5]; 20.2 µM (inactive) in assay [6]; 24.8 µM (inactive) in assay [7]; 42.2 µM (inactive) in assay [8]; 44.1 µM (inactive) in assay [9]; 23.2 µM (inactive) in assay [10]. The GI50 in [11] is 31.6 µM (inactive); in assay [12], 15.7 µM (inactive); in assay [13] it was 30.3 µM (inactive); in assay [14], 35.6 µM (inactive); in assay [16], 22.5 µM (inactive); in assay [17] it was 37 µM (inactive). In addition, in assay [18], the GI50 was 27.5 µM (inactive).
For `CC(=O)c1ccc2c3c1O[C@H]1c4[nH]c5ccccc5c4C[C@@]4(O)[C@@H](C2)N(CC2CC2)CC[C@]314`, the GI50 in assay [1] was 2.06 µM (inactive); in assay [2], 14.9 µM (inactive); in [3], 20.6 µM (inactive); in assay [4] it was 8.67 µM; in assay [19] it was 13.6 µM (inactive); in assay [20] it was 16.9 µM (inactive). In addition, the GI50 in [5] is 16.7 µM (inactive); in [6], 17.1 µM (inactive); in [7], 17.7 µM (inactive); in [8], 0.497 µM (active); in assay [9], 19.1 µM (inactive); in [10], 10.1 µM (inactive). Moreover, the GI50 was 16.6 µM (inactive) in assay [11]; 16 µM (inactive) in assay [12]; 19.1 µM (inactive) in assay [13]; 0.573 µM (active) in [14]; 18.2 µM (inactive) in assay [16]; 12.2 µM (inactive) in [17]. Besides, the GI50 in [18] was 16.8 µM (inactive).
As to `CC1=NN(c2nc(N)nc(CO)n2)C(C)(C)C1`, the GI50 in assay [1] is > 100 µM (inactive); in assay [2] it was > 100 µM (inactive); in [3], > 100 µM (inactive); in [4], > 100 µM; in [19] it was > 100 µM (inactive); in [20] it was > 100 µM (inactive). The GI50 in assay [5], in [6], in assay [7], in [9], in assay [10] and in [11] was > 100 µM (inactive) each time. For the same compound, the GI50 in assay [12], in [13], in assay [14], in assay [16], in assay [17] and in [18] was > 100 µM (inactive) in each case.
`N=C(N)SCCSC(=N)N`: the GI50 in assay [2] is > 100 µM (inactive); in assay [3], > 100 µM (inactive); in assay [4], > 100 µM; in assay [19], > 100 µM (inactive); in assay [20], > 100 µM (inactive); in assay [5], > 100 µM (inactive). In addition, the GI50 in [6], in assay [7], in [8], in assay [9], in [10] and in assay [12] was > 100 µM (inactive) each time. Moreover, the GI50 in [13], in assay [14], in [16], in assay [17] and in [18] was > 100 µM (inactive) each time.
With `O=c1c(C(c2ccc(OCc3ccccc3)cc2)c2c(O)oc3ccccc3c2=O)c(O)oc2ccccc12`, the GI50 in assay [1] was 38.2 µM (inactive); in assay [2] it was 46 µM (inactive); in assay [3], 67.6 µM (inactive); in [4] it was 41.7 µM; in assay [19], 77.4 µM (inactive); in assay [20], 34.2 µM (inactive). Also, the GI50 in assay [5] was 48.4 µM (inactive); in assay [6], 30.7 µM (inactive); in assay [7], 35.7 µM (inactive); in assay [8] it was 35 µM (inactive); in [9] it was 27.2 µM (inactive); in [10], 39.7 µM (inactive). Further, the GI50 in assay [11] is 61.1 µM (inactive); in [12], 29.6 µM (inactive); in [13], 30.4 µM (inactive); in [14] it was 40.6 µM (inactive); in assay [16], 62.1 µM (inactive); in [17], 39.5 µM (inactive). In assay [18], the GI50 is 78.9 µM (inactive).
